In patent US9345682B2, “Inhibition of STAT3 signal transduction for human cancer therapy” (University of South Florida, priority 1999, dated 2016):

Assays:
U266 cells = assay: Cell cycle analysis and spontaneous cell death of U266 cells; format: cell-based, human
Method: For surface detection of the Fas receptor, 10^6 cells are suspended in […] PBS with 2.5 mg/ml mouse IgM (Sigma) and […] UB2 antibody (MBL) or IgG1, isotype control serum (Dako). Following 30 min incubation at room temperature, cells are washed with PBS, and incubated in the dark for 30 min with goat anti-mouse Ig-FITC. Fluorescence is measured on a FACScan flow cytometer and analyzed using CellQuest software (Becton Dickinson). For cell cycle analysis, 10^6 cells are fixed in ice-cold ethanol for a minimum of 2 h, washed with PBS, and stained with 5 mg/ml propidium iodide (PI) and […] at 37° C. for 30 min prior to analysis by flow cytometry. Sensitivity to Fas-mediated apoptosis is determined by exposing cells to 500 ng/ml agonistic antibody (CH-11, MBL) or 100 ng/ml Fas ligand (Alexis) for 18-24 h. Apoptosis is measured by staining with Annexin V-FITC (Clontech) and flow cytometry analysis. Fas-specific death is calculated as (% Annexin V positive cells in the CH-11 treated population)−(% Annexin V positive cells in the IgM control population). Programmed cell death in cells transfected with the bicistronic green fluorescent protein vectors (pIRES-EGFP or pIRES-Stat3b) is analyzed after staining with Annexin V-PE (Pharmingen) by two color flow cytometry analysis. […]

STAT3 [1] = assay: EMSA (SIE probe) of constitutive STAT3 DNA-binding in U266 myeloma cells; format: cell-based, human; conditions: 50 mM AG490, within 16 to 24 hours
Method: U266 and RPMI 8226 cell lines are originally obtained from ATCC and maintained in RPMI 1640 medium supplemented with 10% fetal calf serum (FCS). For detection of STATs in primary bone marrow (BM) cells, BM aspirates are diluted 1:2 in phosphate-buffered saline (PBS) and mononuclear cells are separated by the standard Ficoll-Hypaque (Pharmacia LKB Biotechnology) sedimentation procedure. Mononuclear cells are washed twice with PBS, and nuclear extracts are prepared as described below. For inhibitor studies, a minimum of 10^7 U266 cells are treated with 1 mg/ml Sant7 or with […] AG490 (Meydan, et al., 1996, Nature 379:645-648). NIH 3T3 cells overexpressing the human EGF receptor have been described (Garcia, et al., 1997, Immunity 5:449-460).
Nuclear extracts are prepared as previously described. Briefly, nuclei are isolated and extracted in hypertonic buffer (20 mM HEPES, pH 7.9, 420 mM NaCl, 1 mM EDTA, 1 mM EGTA, 20% glycerol, 20 mM NaF, 1 mM Na3VO4, 1 mM Na2P4O7, 1 mM DTT, 0.5 mM PMSF, 0.1 mM aprotinin, 1 mM leupeptin, and 1 mM antipain). […] Protein-DNA complexes are resolved on 5% non-denaturing polyacrylamide gels and analyzed by autoradiography. […]

peritoneal macrophages = assay: IL-12-mediated nitric oxide production by macrophages treated in vitro; format: cell-based, mice; conditions: in vitro treatment of macrophages, 50 mM AG-490
Method: Nitric oxide production. Peritoneal macrophages (2×10^5/0.2 ml/well) from mice with various treatments are incubated 48 hours. Nitrite accumulation in macrophage supernatants were determined using Griess reagent.
In vitro IL-12 activation and AG-490 treatment of macrophages. Peritoneal macrophages (2×10^5/well) are incubated in medium supplemented with either PBS, or rIL-12 (2 ng/ml), or AG-490 ([…]). Forty-eight hours later, the cultures are renewed by addition of fresh medium with either AG-490 or rIL-12 or PBS. Activation of macrophages is determined by nitric oxide production. Macrophage viability is determined by cleavage of tetrazolium salt in an MTT assay.

[2] = set-up: species or system mice; conditions: mouse, in vivo
Method: FIG. 7: AG490 Blocks Tumorigenicity of Breast Carcinoma Cells. Nude mice are engrafted with MDA-MB-468 tumor cells, and then treated with AG490 by mini-pump infusion (42 mpk) and daily intraperitoneal injections (50 mpk).
AG490 is administered by continuous infusion using subcutaneous mini-pumps supplemented with intraperitoneal injections.

STAT3 [3] = assay: EMSA of constitutive STAT3 DNA-binding activity in MDA-MB-468 breast carcinoma cells; format: cell-based, human; conditions: MDA-MB-468 cells; dose-dependent
Method: FIG. 6: Src and JAK Inhibitors Block Growth and STAT3 Activation in Breast Carcinoma Cells. MDA-MD-468 cells are treated with inhibitors of EGF receptor (PD158780), Src (PD180970), or JAKs (AG490), and effects on cell growth (Panel A) and STAT3 DNA-binding activity (Panel B) are determined.
STAT DNA-binding activity in human breast cancer cell lines is examined by electrophoretic mobility shift assays (EMSA) (Garcia et al., 1997, Cell Growth Diff. 8:1267-1276). In these experiments, EMSAs are performed using the ^32P-labeled sis-inducible element (SIE) as a probe to detect STAT DNA-binding activity in nuclear extracts of cells. This synthetic DNA oligonucleotide probe is a high-affinity mutant of the c-fos SIE, called hSIE, that binds both STAT1 and STAT3 (Yu, et al., 1995, Science 269:81-83). […] This activation is constitutive and occurs in the absence of exogenous EGF stimulation. By contrast, STAT3 activation is not detected in any of the three cell lines derived from normal breast tissue.
The involvement of these, and other, tyrosine kinases in STAT3 activation is tested using specific inhibitors of JAK family kinases, and the EGF receptor and Src family kinases.

[4] = tested on: myeloma cells with activated STAT3; assay: In vitro apoptosis assay of murine myeloma cells; format: cell-based
Method: In vitro apoptosis assay. After a 24 hours incubation with LIMEM medium containing […] AG-490, cells are stained with Annexin V-PE and 7-Amino-actinomycin D (PharMingen, San Diego, Calif.). Dual-color fluorescence is measured on a FACScan flow cytometer and analyzed using CellQuest software (Becton Dickinson, Mountain View, Calif.).

N#C/C(=C\c1ccc(O)c(O)c1)C(=O)NCc1ccccc1 [AG490]
spontaneous cell death (U266 cells; AG490, 72 hours): extensive spontaneous cell death
cells accumulating in G1 (U266 cells; AG490 for 48 h): 70%
constitutive STAT3 DNA-binding activity (STAT3 [1]): complete abrogation
IL-12-mediated nitric oxide production (peritoneal macrophages): prevents or suppressed
toxicity in animals [2]: not detectably toxic
constitutive STAT3 activation (STAT3 DNA-binding activity) (STAT3 [3]): effectively blocked
apoptosis of myeloma cells [4]: efficient apoptosis
